We go through 18 compounds from US6605620B1, “Cyclic amine compounds and pharmaceutical composition containing the same” (Kowa Co., Ltd., priority 2001, dated 2003).

The test system of the assay is U937 cells adhered to HUVEC stimulated by TNFα. Kind of assay: Inhibitory effect on cell adhesion (U937 adhesion to TNFα-stimulated HUVEC). The assay is classed as cell-based, human. As to conditions: for IC50: Homo sapiens, U937 adhesion to TNFα-stimulated HUVEC, fluorescence (PKH2) readout. The method, then: The test was conducted by reference to the method by Ross et al. (J. Biol. Chem., 267 8537-8543 (1992)). More specifically, after human umbilical venous endothelial cells (HUVEC) were cultured on a 48-well plate to confluent growth, TNFα was added thereto. Upon elapsed time of 5 hours after the addition, U937, which was a human monocytic/histocytic cell fluorescence-labeled with PKH2 (product of Sigma-Aldrich Co., Ltd.), was added in a proportion of 1×10^6 cells per well. After the plate was left at rest at room temperature for 1 hour, unadhered U937 was washed out and lysed in 1% Triton X-100 to measure a remaining fluorescence intensity (excitation wavelength: 480 nm; measuring wavelength: 530 nm). HUVEC and U937 were cultured in EGM-2 (product of Sanko Junyaku K. K.) and 10% FCS-containing RPMI1640, respectively. Each test agent was added to HUVEC upon the addition of TNFα and to U937 24 hours prior to the cell adhesion test. The inhibitory activity was calculated out as IC50 value after inhibitory ratio at each concentration of test compounds was determined. The inhibitory ratio was calculated according to the equation […], wherein A is the number of U937 cells adhered to HUVEC stimulated by TNFα when no test agent was added, B is the number of U937 cells adhered to HUVEC not stimulated by TNFα when no test agent was added, and C is the number of U937 cells adhered to HUVEC stimulated by TNFα when the test agent was added. As control compounds, Test Compound 1 described in Japanese Patent Application Laid-Open No. 9-143075 and dilazep described in Japanese Patent Application Laid-Open No. 11-92382 were simultaneously evaluated.

Structures are written as SMILES. Counter-ions that a name gives are not always drawn. Bounds are passed on as bounds.

Broadly, the IC50 is the midpoint of a concentration-inhibition curve. On to `COc1ccc(N(Cc2cncc(-c3cc(OC)c(OC)c(OC)c3)c2)C2CCN(Cc3ccnc(-c4cc(OC)c(OC)c(OC)c4)c3)CC2)cc1` [Example 13, 4-[N-(4-Methoxyphenyl)-N-[[5-(3,4,5-trimethoxyphenyl)pyridin-3-yl]methyl]amino]-1-[[2-(3,4,5-trimethoxyphenyl)pyridin-4-yl]methyl]piperidine Trihydrochloride], for which the IC50 amounted to 0.03 µM.
Regarding `COc1cc(-c2cc(CNC3CCN(Cc4ccnc(-c5cc(OC)c(OC)c(OC)c5)c4)CC3)ccn2)cc(OC)c1OC` [Example 5, 1-[[2-(3,4,5-Trimethoxyphenyl)pyridin-4-yl]methyl]-4-[[2-(3,4,5-trimethoxyphenyl)pyridin-4-yl]methylamino]piperidine Difumalate], the IC50 was 0.2 µM.
`COc1cc(-c2cc(CN3CCC(N(Cc4ccccc4)Cc4ccnc(-c5cc(OC)c(OC)c(OC)c5)c4)CC3)ccn2)cc(OC)c1OC` [Example 16, 4-[N-Benzyl-N-[[2-(3,4,5-trimethoxyphenyl)pyridin-4-yl]methyl]amino]-1-[[2-(3,4,5-trimethoxyphenyl)pyridin-4-yl]methyl]piperidine Tetrahydrochloride] gave an IC50 of 0.3 µM.
`COc1ccc(N(Cc2ccnc(-c3cc(OC)c(OC)c(OC)c3)c2)C2CCN(Cc3ccnc(-c4cc(OC)c(OC)c(OC)c4)c3)CC2)cc1` [Example 10, 4-[N-(4-Methoxyphenyl)-N-[[2-(3,4,5-trimethoxypheny)pyridin-4-yl]methyl]amino]-1-[[2-(3,4,5-trimethoxyphenyl)pyridin-4-yl]methyl]piperidine Trihydrochloride] yielded an IC50 of 0.04 µM.
Consider `c1cc(CNC2CCN(Cc3ccncc3)CC2)ccn1` [Preparation Example 91, 1-(4-Pycolyl)-4-(4-pycolylamino)piperidine Tetrahydrochloride, reference compound], for which the “inhibitory effect on cell adhesion (result in words)” value (examined similar to the Test Example 1 procedure, even at a concentration as high as 10 μM) is “inactive”.
The compound `COc1cc(C(=O)OCCCN2CCCN(CCCOC(=O)c3cc(OC)c(OC)c(OC)c3)CC2)cc(OC)c1OC` [Dilazep, dilazep, reference compound] had an IC50 of more than 10 µM.
On to `COc1cc(-c2cc(CN3CCC(N(Cc4ccnc(-c5cc(OC)c(OC)c(OC)c5)c4)c4ccc(SC)cc4)CC3)ccn2)cc(OC)c1OC` [Example 111, 1-[[2-(3,4,5-Trimethoxyphenyl)pyridin-4-yl]methyl]-4-[N-[[2-(3,4,5-trimethoxyphenyl)pyridin-4-yl]methyl]-N-(4-methylthiophenyl)amino]piperidine Trihydrochloride], for which it took 0.08 µM to reach half-maximal inhibition (IC50).
Consider `COc1cc(-c2cc(CN3CCC(N(Cc4ccnc(-c5cc(OC)c(OC)c(OC)c5)c4)c4ccc5c(c4)OCO5)CC3)ccn2)cc(OC)c1OC` [Example 29, 4-[N-(3,4-Methylenedioxyphenyl)-N-[[2-(3,4,5-trimethoxyphenyl)pyridin-4-yl]methyl]amino]-1-[[2-(3,4,5-trimethoxyphenyl)pyridin-4-yl]methyl]piperidine Trihydrochloride], for which the IC50 was 0.03 µM. Against the preceding compound, the IC50 is about 2.7-fold lower.
On the same count and under the same terms, the figure for `COc1cc(-c2cc(CN3CCC(N(C)Cc4ccnc(-c5cc(OC)c(OC)c(OC)c5)c4)CC3)ccn2)cc(OC)c1OC` [Example 36, 4-[N-Methyl-N-[[2-(3,4,5-trimethoxyphenyl)pyridin-4-yl]methyl]amino]-1-[[2-(3,4,5-trimethoxyphenyl)pyridin-4-yl]methyl]piperidine Tetrahydrochloride] is 0.2 µM.
In turn, `COc1cccc(N(Cc2ccnc(-c3cc(OC)c(OC)c(OC)c3)c2)C2CCN(Cc3ccnc(-c4cc(OC)c(OC)c(OC)c4)c3)CC2)c1` [Example 88, 4-[N-(3-Methoxyphenyl)-N-[[2-(3,4,5-trimethoxyphenyl)pyridin-4-yl]methyl]amino]-1-[[2-(3,4,5-trimethoxyphenyl)pyridin-4-yl]methyl]piperidine Trihydrochloride] displayed an IC50 of 0.07 µM.
`COc1cc(-c2cncc(CN(C)C3CCN(Cc4ccnc(-c5cc(OC)c(OC)c(OC)c5)c4)CC3)c2)cc(OC)c1OC` [Example 7, 4-[N-Methyl-N-[[5-(3,4,5-trimethoxyphenyl)pyridin-3-yl]methyl]amino]-1-[[2-(3,4,5-trimethoxyphenyl)pyridin-4-yl]methyl]piperidine Difumarate] showed an IC50 of 0.3 µM.
Turning to `COc1cc(-c2cncc(CN(Cc3ccccc3)C3CCN(Cc4ccnc(-c5cc(OC)c(OC)c(OC)c5)c4)CC3)c2)cc(OC)c1OC` [Example 19, 4-[N-Benzyl-N-[[5-(3,4,5-trimethoxypheny)pyridin-3-yl]methyl]amino]-1-[[2-(3,4,5-trimethoxyphenyl)pyridin-4-yl]methyl]piperidine Tetrahydrochloride], the IC50 is 0.3 µM.
On the same count and under the same terms, the result for `COc1cc(-c2cc(CN3CCC(N(Cc4ccnc(-c5cc(OC)c(OC)c(OC)c5)c4)c4ccc(F)cc4)CC3)ccn2)cc(OC)c1OC` [Example 157, 4-[N-(4-Fluorophenyl)-N-[[2-(3,4,5-trimethoxyphenyl)pyridin-4-yl]methyl]amino]-1-[[2-(3,4,5-trimethoxyphenyl)pyridin-4-yl]methyl]piperidine Trihydrochloride] reads 0.09 µM.
The same measure, in the same setting: the result for `COc1cc(OC)cc(N(Cc2ccnc(-c3cc(OC)c(OC)c(OC)c3)c2)C2CCN(Cc3ccnc(-c4cc(OC)c(OC)c(OC)c4)c3)CC2)c1` [Example 23, 4-[N-(3,5-Dimethoxyphenyl)-N-[[2-(3,4,5-trimethoxyphenyl)pyridin-4-yl]methyl]amino]-1-[[2-(3,4,5-trimethoxyphenyl)pyridin-4-yl]methyl]piperidine Trihydrochloride] reads 0.03 µM.
The same measure, in the same setting: the result for `COc1cccc(N(Cc2ccnc(-c3cc(OC)c(OC)c(OC)c3)c2)C2CCN(Cc3cncc(-c4cc(OC)c(OC)c(OC)c4)c3)CC2)c1` [Example 89, 4-[N-(3-Methoxyphenyl)-N-[[2-(3,4,5-trimethoxyphenyl)pyridin-4-yl]methyl]amino]-1-[[3-(3,4,5-trimethoxyphenyl)pyridin-5-yl]methyl]piperidine Trihydrochloride] reads 0.09 µM.
The compound `COc1cc(-c2cc(CN3CC[C@H](N(C)Cc4ccnc(-c5cc(OC)c(OC)c(OC)c5)c4)C3)ccn2)cc(OC)c1OC` [Example 3, (3S)-3-[N-Methyl-N-[[2-(3,4,5-trimethoxyphenyl)pyridin-4-yl]methyl]amino]-1-[[2-(3,4,5-trimethoxyphenyl)pyridin-yl]methyl]pirrolidine Tertrahydrochloride] registered an IC50 of 0.3 µM.
`COc1cc(-c2cc(CN3CCC(N(Cc4ccnc(-c5cc(OC)c(OC)c(OC)c5)c4)c4ccccc4)CC3)ccn2)cc(OC)c1OC` [Example 42, 4-[N-Phenyl-N-[[2-(3,4,5-trimethoxyphenyl)pyridin-4-yl]methyl]amino]-1-[[2-(3,4,5-trimethoxyphenyl)pyridin-4-yl]methyl]piperidine Trihydrochloride] came in with an IC50 of 0.07 µM.
The compound `COc1ccc(N(Cc2ccnc(-c3cc(OC)c(OC)c(OC)c3)c2)C2CCN(Cc3cncc(-c4cc(OC)c(OC)c(OC)c4)c3)CC2)cc1` [Example 67, 4-[N-(4-Methoxyphenyl)-N-[[2-(3,4,5-trimethoxyphenyl)pyridin-4-yl]methyl]amino]-1-[[3-(3,4,5-trimethoxyphenyl)pyridin-5-yl]methyl]piperidine Trihydrochloride] displayed a concentration for half-maximal inhibition (IC50) of 0.09 µM.
